28 compounds from US11827628B2, “Compositions and methods for inhibition of the JAK pathway” (Rigel Pharmaceuticals, Inc., priority 2005, dated 2023) can be followed below.

Like-named read-outs stand apart in the source and are kept apart here.

Assay [1] deals with IL-4 stimulated expression of CD23 in human Ramos B cells (JAK-1 and JAK-3). The assay is described as follows: Assay for Ramos B-Cell Line Stimulated with IL-4 (CD23 upregulation, FACS). The following applies: read-out: IC50, Example 41. It counts as cell-based. In short, it runs like this:
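Steps: Ramos B cells are suspended in RPMI with 5% serum, exposed to compound for 1 h at 37 °C, stimulated with IL-4 (final 50 units/mL) for 20-24 h, stained for CD23 and analysed by flow cytometry. IC50 is calculated.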

The test system of the next assay is Primary human T-cells. The assay is described as follows: Primary Human T-Cell Proliferation Assay Stimulated with IL-2 (CellTiter-Glo). The class given is cell-based. The conditions noted are these: read-out: IC50, Example 42. In short, it runs like this:
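IC50 derived from CellTiter-Glo ATP signal after 72 hours of IL-2-driven proliferation at 37° C. Cells: primary human T-cells from blood, stimulated beforehand 3-4 days on anti-CD3/anti-CD28 with IL-2, then rested from IL-2 before compound exposure in duplicate; IL-2-free wells served as unstimulated control.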
For orientation: ATP-based viability assays read luminescence as a measure of living cells.

Setting [2] is: Homo sapiens, Ramos, Ramos B-cell line stimulated with IL-4, CD23 expression by FACS.
Setting [3] is: Homo sapiens, T-cell, primary human T-cell proliferation stimulated with IL-2.

Turning to `CNC(=O)COc1ccc(Nc2nc(Nc3ccc(S(N)(=O)=O)cc3)ncc2C)cc1Cl` [Compound I-149, N2-(4-Aminosulfonylphenyl)-N4-(3-chloro-4-methylaminocarbonylmethoxyphenyl)-5-methyl-2,4-pyrimidinediamine], the IC50 (usually the concentration that gives 50% inhibition) was found to be 161 nM in assay [1] (setting [2]) and 197 nM in the assay with Primary human T-cells (setting [3]).

As to `CNC(=O)COc1ccc(Nc2nc(Nc3cccc(S(N)(=O)=O)c3)ncc2C)cc1Cl` [Compound I-150, N2-(3-Aminosulfonylphenyl)-N4-(3-chloro-4-methylaminocarbonylmethoxyphenyl)-5-methyl-2,4-pyrimidinediamine], the IC50 in assay [1] (setting [2]) is 65.7 nM; in the assay with Primary human T-cells (setting [3]), 68.1 nM.

For the compound `CNC(=O)COc1ccc(Nc2nc(Nc3cccc(S(N)(=O)=O)c3)ncc2C)cc1F` [Compound I-155, N2-(3-Aminosulfonylphenyl)-N4-(3-fluoro-4-methylaminocarbonylmethoxyphenyl)-5-methyl-2,4-pyrimidinediamine], the IC50 in assay [1] (setting [2]) was 118 nM; in the assay on Primary human T-cells (setting [3]) it was 99.3 nM.

As for `CNC(=O)COc1ccc(Nc2nc(Nc3ccc(C)c(S(N)(=O)=O)c3)ncc2C)cc1F` [Compound I-156, N2-(3-Aminosulfonyl-4-methylphenyl)-N4-(3-fluoro-4-methylaminocarbonylmethoxyphenyl)-5-methyl-2,4-pyrimidinediamine], the results for the IC50 (in assay [1] (setting [2]); in the assay with Primary human T-cells (setting [3])) were 65.5 nM and 142 nM, respectively.

As to `C=CCNC(=O)COc1ccc(Nc2nc(Nc3cccc(S(N)(=O)=O)c3)ncc2F)cc1` [Compound I-158, N4-(4-Allylaminocarbonylmethoxyphenyl)-N2-(3-aminosulfonylphenyl)-5-fluoro-2,4-pyrimidinediamine], the IC50 in assay [1] (setting [2]) came out at 297 nM; in the assay on Primary human T-cells (setting [3]) it was 445 nM.

Turning to `C=CCNC(=O)COc1ccc(Nc2nc(Nc3ccc(C)c(S(N)(=O)=O)c3)ncc2F)cc1` [Compound I-159, N4-(4-Allylaminocarbonylmethoxyphenyl)-N2-(3-aminosulfonyl-4-methylphenyl)-5-fluoro-2,4-pyrimidinediamine], the results for the IC50 (in assay [1] (setting [2]); in the assay with Primary human T-cells (setting [3])) were 338 nM and 539 nM, respectively.

In the case of `Cc1ccc(Nc2ncc(F)c(Nc3ccc(OCc4cccnc4)cc3)n2)cc1S(N)(=O)=O` [Compound I-178, N2-(3-Aminosulfonyl-4-methylphenyl)-5-fluoro-N4-[4-(3-pyridylmethoxy)phenyl]-2,4-pyrimidinediamine], the results for the IC50 (in assay [1] (setting [2]); in the assay with Primary human T-cells (setting [3])) were 23.5 nM and 29.3 nM, respectively.

Consider `Cc1ccc(Nc2nc(Nc3cccc(S(N)(=O)=O)c3)ncc2F)cc1OCCN1CCOCC1` [Compound I-203, N2-(3-Aminosulfonylphenyl)-5-fluoro-N4-[4-methyl-3-(2-morpholinoethyloxy)phenyl]-2,4-pyrimidinediamine], for which the figures for the IC50 (in assay [1] (setting [2]); with Primary human T-cells (setting [3])) were 265 nM and 684 nM, respectively.

With `Cc1ccc(Nc2nc(Nc3ccc(C)c(S(N)(=O)=O)c3)ncc2F)cc1OCCN1CCOCC1` [Compound I-204, N2-(3-Aminosulfonyl-4-methylphenyl)-5-fluoro-N4-[4-methyl-3-(2-morpholinoethyloxy)phenyl]2,4-pyrimidinediamine], the IC50 was determined as 256 nM in assay [1] (setting [2]) and 1650 nM in the assay on Primary human T-cells (setting [3]).

For `NS(=O)(=O)c1ccc(Nc2ncc(F)c(Nc3ccc(OCCN4CCOCC4)cc3)n2)cc1` [Compound I-205, N2-(4-Aminosulfonylphenyl)-5-fluoro-N4-[4-(2-morpholinoethyloxy)phenyl)-2,4-pyrimidinediamine], the IC50 in assay [1] (setting [2]) stood at 315 nM; in the assay on Primary human T-cells (setting [3]) it was 1860 nM.

As to `Cc1cc(COc2ccc(Nc3nc(Nc4cccc(S(N)(=O)=O)c4)ncc3F)cc2)no1` [Compound I-230, N2-(3-Aminosulfonylphenyl)-5-fluoro-N4-[4-(5-methylisoxazol-3-yl)methyleneoxyphenyl]-2,4-pyrimidinediamine], the IC50 was found to be 84.3 nM in assay [1] (setting [2]) and 69.2 nM in the assay with Primary human T-cells (setting [3]).

Consider `Cc1cc(COc2ccc(Nc3nc(Nc4cccc(S(=O)(=O)NCc5oc(=O)oc5C)c4)ncc3F)cc2)no1` [Compound I-247, N2-{3-[(N-5-Methyl-1,3-dioxolene-2-one-4-yl)methylene]aminosulfonylphenyl}-5-fluoro-N4-[4-(5-methylisoxazol-3-yl)methyleneoxyphenyl]-2,4-pyrimidinediamine], for which the results for the 50% inhibitory concentration (IC50) (in assay [1] (setting [2]); in the assay on Primary human T-cells (setting [3])) were 225 nM and 119 nM, respectively.

On to `Cc1nnc(COc2ccc(Nc3nc(Nc4ccc(C)c(S(N)(=O)=O)c4)ncc3F)cc2)o1` [Compound I-279, N2-(3-Aminosulfonyl-4-methylphenyl)-5-fluoro-N4-[4-(5-methyl-1,3,4-oxadiazol-2-yl)methoxyphenyl]-2,4-pyrimidinediamine], for which the IC50 in assay [1] (setting [2]) was 123 nM; in the assay with Primary human T-cells (setting [3]), 167 nM.

`Cc1ccc(Nc2ncc(F)c(Nc3cnc4c(c3)OC(C)(C)C(=O)N4CC#N)n2)cc1S(N)(=O)=O` [Compound V-14, N2-(3-Aminosulfonyl-4-methylphenyl)-N4-[2,2-dimethyl-3-oxo-4-cyanomethyl-5-pyrid[1,4]oxazin-7-yl]-5-fluoro-2,4-pyrimidinediamine]: the IC50 in assay [1] (Ramos B cells stimulated with IL-4, CD23 expression by FACS) came out at 197 nM; in the assay with Primary human T-cells (primary human T-cells stimulated with IL-2, proliferation), 2590 nM.

`Cc1cc2ccc(CNc3nc(Nc4cccc(S(N)(=O)=O)c4)ncc3F)cc2[nH]1` [Compound X-3]: the IC50 in assay [1] (Homo sapiens, Ramos, Ramos B cells stimulated with IL-4, CD23 expression by FACS) came to 348 nM; in the assay on Primary human T-cells (Homo sapiens, T-cell, primary human T-cells stimulated with IL-2, proliferation), 1090 nM.

Consider `Cc1ccc(Nc2ncc(F)c(Nc3cccc(OC4CCN(C)CC4)c3)n2)cc1S(N)(=O)=O` [II-2, N2-(3-Aminosulfonyl-4-methylphenyl)-5-fluoro-N4-{3-[(1-methylpiperidin-4-yl)oxy]phenyl}-2,4-pyrimidinediamine], for which the IC50 in assay [1] (setting [2]) was determined as 244 nM; in the assay on Primary human T-cells (setting [3]) it was 1520 nM.

Turning to `Cc1ccc(Nc2ncc(F)c(Nc3ccc(OC4CCN(C)CC4)c(C(F)(F)F)c3)n2)cc1S(N)(=O)=O` [II-6, N2-(3-Aminosulfonyl-4-methylphenyl)-5-fluoro-N4-{4-[(1-methylpiperidin-4-yl)oxy]-3-trifluoromethylphenyl}-2,4-pyrimidinediamine], the results for the IC50 (in assay [1] (setting [2]); in the assay with Primary human T-cells (setting [3])) were 111 nM and 1220 nM, respectively.

As to `Cc1ccc(Nc2ncc(F)c(Nc3ccc(OC4CCN(C)CC4)cc3)n2)cc1S(N)(=O)=O` [II-7, N2-(3-Aminosulfonyl-4-methylphenyl)-5-fluoro-N4-{4-[(1-methylpiperidin-4-yl)oxy]phenyl}-2,4-pyrimidinediamine], the IC50 was 144 nM in assay [1] (setting [2]) and 522 nM with Primary human T-cells (setting [3]).

Consider `NS(=O)(=O)c1cccc(Nc2ncc(F)c(Nc3ccc(Oc4cccnc4)cc3)n2)c1` [II-11, N2-(3-Aminosulfonylphenyl)-5-fluoro-N4-[4-(3-pyridyloxy)phenyl]-2,4-pyrimidinediamine], for which the IC50 in assay [1] (setting [2]) worked out at 107 nM; with Primary human T-cells (setting [3]), 198 nM.

Regarding `Cc1ccc(Nc2ncc(F)c(Nc3ccc(Oc4cccnc4)cc3)n2)cc1S(N)(=O)=O` [II-12, N2-(3-Aminosulfonyl-4-methylphenyl)-5-fluoro-N4-[4-(3-pyridyloxy)phenyl]-2,4-pyrimidinediamine], the IC50 in assay [1] (setting [2]) was found to be 56.3 nM; with Primary human T-cells (setting [3]), 409 nM.

With `Cc1cnc(Nc2ccc(Cl)c(S(N)(=O)=O)c2)nc1Nc1ccc(CCC#N)cc1` [III-12, N2-(3-Aminosulfonyl-4-chlorophenyl)-N4-[4-(2-cyanoethyl)phenyl]-5-methyl-2,4-pyrimidinediamine], the IC50 in assay [1] (setting [2]) was determined as 70 nM; with Primary human T-cells (setting [3]), 107 nM.

On to `Cc1ccc(Nc2ncc(F)c(Nc3ccc(CCC#N)c(F)c3)n2)cc1S(N)(=O)=O` [III-17, N2-(3-Aminosulfonyl-4-methylphenyl)-5-fluoro-N4-[4-(2-cyanoethyl)-3-fluorophenyl]-2,4-pyrimidinediamine], for which the IC50 in assay [1] (setting [2]) came to 56.7 nM; in the assay on Primary human T-cells (setting [3]), 197 nM.

For the compound `N#CCCc1ccc(Nc2nc(Nc3cccc(S(N)(=O)=O)c3)ncc2F)cc1F` [III-18, N2-(3-Aminosulfonylphenyl)-N4-[4-(2-cyanoethyl)-3-fluorophenyl]-5-fluoro-2,4-pyrimidinediamine], the IC50 in assay [1] (setting [2]) was determined as 36.6 nM; in the assay with Primary human T-cells (setting [3]) it was 136 nM.

In the case of `Cc1cc(Nc2nc(Nc3ccc(C)c(S(N)(=O)=O)c3)ncc2F)ccc1CCC#N` [III-19, N2-(3-Aminosulfonyl-4-methylphenyl)-N4-[4-(2-cyanoethyl)-3-methylphenyl]-5-fluoro-2,4-pyrimidinediamine], the figures for the IC50 (in assay [1] (setting [2]); in the assay with Primary human T-cells (setting [3])) were 72.3 nM and 174 nM, respectively.

For the compound `Cc1cc(Nc2nc(Nc3cccc(S(N)(=O)=O)c3)ncc2F)ccc1CCC#N` [III-20, N2-(3-Aminosulfonylphenyl)-N4-[4-(2-cyanoethyl)-3-methylphenyl]-5-fluoro-2,4-pyrimidinediamine], the IC50 in assay [1] (setting [2]) stood at 43 nM; in the assay on Primary human T-cells (setting [3]), 763 nM.

`Cc1ccc(Nc2ncc(F)c(Nc3ccc(CCC#N)c(Cl)c3)n2)cc1S(N)(=O)=O` [III-21, N2-(3-Aminosulfonyl-4-methylphenyl)-N4-[3-chloro-4-(2-cyanoethyl)phenyl]-5-fluoro-2,4-pyrimidinediamine]: the IC50 in assay [1] (setting [2]) was 30.3 nM; with Primary human T-cells (setting [3]), 114 nM.

On to `N#CCCc1ccc(Nc2nc(Nc3cccc(S(N)(=O)=O)c3)ncc2F)cc1Cl` [III-22, N2-(3-Aminosulfonylphenyl)-N4-[3-chloro-4-(2-cyanoethyl)phenyl]-5-fluoro-2,4-pyrimidinediamine], for which the half-inhibitory concentration (IC50) in assay [1] (setting [2]) was found to be 45.4 nM; with Primary human T-cells (setting [3]), 76.1 nM.

Consider `Cc1ccc(Nc2ncc(F)c(Nc3ccc(CCOC(N)=O)cc3)n2)cc1S(N)(=O)=O` [III-53, N4-{4-[2-(Aminocarbonyloxy)ethyl]phenyl}-N2-(3-aminosulfonyl-4-methylphenyl)-5-fluoro-2,4-pyrimidinediamine], for which the IC50 in assay [1] (setting [2]) stood at 97.7 nM; in the assay with Primary human T-cells (setting [3]), 286 nM.
